# Measured values from PubChem BioAssay AID2060891 (Molecular Pharmacology Branch, DTP, NCI, 2025).
# System: K98450-129-R-PDC complex spheroid growth, percent test/control
# Assay: Anticancer human tumor K98450-129-R-PDC patient-derived colon adenocarcinoma cell line growth inhibition [RAS]
# Conditions: for IC50: curve of first compound; for viability, T/C: stronger effect = lower value
# From the text: RAS pathway inhibitors in Combinations in Complex Spheroids
# A high-throughput screen of multi-cell type tumor spheroids was designed to identify active combinations of RAS pathway inhibitors and targeted small molecules. Complex spheroids include a stromal component modeled by human endothelial cells (HUVEC) and fibroblasts modeled by human mesenchymal stem cells (MSCs). The concentration ranges selected for each drug and investigational agent were based upon clinically achievable concentrations if the clinical Cmax of the agent was known.
# Compounds. The drugs and investigational agents: abemaciclib (NSC768073), cobimetinib (NSC768068), divarasib (GDC6063, NSC841802), docetaxel (NSC628503), GDC-1971 (RLY-1971, NSC841576), gemcitabine (NSC613327), inavolisib (NSC800729), ipatasertib (NSC767898), KB-0742 (NSC834161), MRTX-1133 (NSC836407), osimertinib (NSC779217), RMC-4630 (NSC839698), RMC-6236 (NSC851965), RMC-6291 (NSC852671), Ro-3306 (NSC812927), sapanisertib (NSC764658), SN-38 (NSC673596), staurosporine (NSC755774), SY5609 (NSC837396), and tovorafenib (DAY101, NSC766906), were obtained from the National Cancer Institute (NCI) Developmental Therapeutics Program Chemical Repository. The FDA-approved anticancer drug set is available from the NCI Developmental Therapeutics Program. […] The stock solutions were prepared in dimethyl sulfoxide (DMSO, Sigma-Aldrich, St. Louis, MO, cat. D2650) at 800-fold the tested concentration and stored at -70 degrees C prior to their use. All drugs and investigational agents were tested over a range starting from a high concentration at or near the clinical Cmax and decreasing in half-log increments. If the clinical Cmax for an agent had not been determined, the highest concentration tested was 10 microM.
# Cell Culture. All cells were maintained in an incubator at 37 degrees C and 5% CO2 with 95% humidity. The PDC lines were cultured according to standard operating procedures established by the NCI PDMR. All PDCs were thawed and cultured in Matrigel-coated flasks prepared with a working solution of 1X Ham's F-12 nutrient mix, without supplementation (Invitrogen, Waltham, MA, cat. 11765054), 100 U/mL penicillin-streptomycin (Invitrogen, cat. 15140122), and 2.5% Matrigel (Corning Inc., Corning, NY, cat. 354248) for the first three passages. The 362531-283-R-J2-PDC and 782815-120-R-J1-PDC lines were cultured in 6C/Colon 1B media, which includes advanced DMEM/F-12 (Thermo Fisher Scientific, cat. 12634028), 10 mM HEPES (Thermo Fisher Scientific, cat. 15630080), 1X GlutaMAX supplement (Thermo Fisher Scientific, cat. 35050061), 0.1 mg/mL primocin (InvivoGen, San Diego, CA, cat. ant-pm-2), 10% defined fetal bovine serum, heat inactivated (HyClone Laboratories Inc., Logan, UT, cat. SH30070.03HI), 50% L-WRN conditioned media (ATCC, cat. CRL-3276), 1.25 mM N-Acetyl-L-cysteine (Sigma-Aldrich, cat. A9165), 10 mM nicotinamide (Sigma-Aldrich, cat. N0636), 1X B-27 supplement (Thermo Fisher Scientific, cat. 17504044), 1X N-2 supplement (Thermo Fisher Scientific, cat. 17502048), 50 ng/mL human EGF (Thermo Fisher Scientific, cat. PHG0311), and 10 microM Y-27632 dihydrochloride (Tocris Bioscience, cat. 1254). The K12877-001-R-J1-PDC line was cultured in 6I media, which includes all 6C/Colon 1B media plus 10 ng/mL human FGF-10 (PeproTech, cat. 100-26), 1 ng/mL human FGF-2 (PeproTech, cat. 100-18B), 1 µM prostaglandin E2 (Tocris Bioscience, cat. 2296), […] hydrocortisone (Sigma-Aldrich, cat. H4001), and […] bovine insulin (Sigma-Aldrich, cat. I6634). The K86415-001-R-J1-PDC line was cultured in 6D media, which includes all 6C/Colon 1B media components minus the L-WRN conditioned media. The 485176-168-R4-J1-PDC was cultured in PANC media, which includes all 6C/Colon 1B media plus 100 ng/mL human FGF-10 (PeproTech, cat. 100-26), 500 nM SB-431542 (Selleckchem, cat. S1067), and 10 nM gastrin (Tocris Bioscience, cat. 3006). […]
# [1] = second compound 0.0316 µM, first compound 0.0316 µM
# [2] = second compound 0.0316 µM, first compound 0.1 µM
# [3] = second compound 0.0316 µM, first compound 0.316 µM
# [4] = second compound 0.0316 µM, first compound 1 µM
# [5] = second compound 0.0316 µM, first compound 3.16 µM
# [6] = second compound 0.0316 µM, first compound 10 µM
# [7] = second compound 0.1 µM, first compound 0.0316 µM
# [8] = second compound 0.1 µM, first compound 0.1 µM
# [9] = second compound 0.1 µM, first compound 0.316 µM
# [10] = second compound 0.1 µM, first compound 1 µM
# [11] = second compound 0.1 µM, first compound 3.16 µM
# [12] = second compound 0.1 µM, first compound 10 µM
# [13] = second compound 0.316 µM, first compound 0.0316 µM
# [14] = second compound 0.316 µM, first compound 0.1 µM
# [15] = second compound 0.316 µM, first compound 0.316 µM
# [16] = second compound 0.316 µM, first compound 1 µM
# [17] = second compound 0.316 µM, first compound 3.16 µM
# [18] = second compound 0.316 µM, first compound 10 µM
# [19] = second compound 1 µM, first compound 0.0316 µM
# [20] = second compound 1 µM, first compound 0.1 µM
# [21] = second compound 1 µM, first compound 0.316 µM
# [22] = second compound 1 µM, first compound 1 µM
# [23] = second compound 1 µM, first compound 3.16 µM
# [24] = second compound 1 µM, first compound 10 µM
# [25] = second compound 3.16 µM, first compound 0.0316 µM
# [26] = second compound 3.16 µM, first compound 0.1 µM
# [27] = second compound 3.16 µM, first compound 0.316 µM
# [28] = second compound 3.16 µM, first compound 1 µM
# [29] = second compound 3.16 µM, first compound 3.16 µM
# [30] = second compound 3.16 µM, first compound 10 µM
# [31] = second compound 10 µM, first compound 0.0316 µM
# [32] = second compound 10 µM, first compound 0.1 µM
# [33] = second compound 10 µM, first compound 0.316 µM
# [34] = second compound 10 µM, first compound 1 µM
# [35] = second compound 10 µM, first compound 3.16 µM
# [36] = second compound 10 µM, first compound 10 µM
# 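Further: spheroids exposed to agents for seven days before the viability readout.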
# 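Wherever viability, T/C is given: luminescence used as a proxy for viable cell amount.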
compound,measurement,setting,value
CC(C)NCC(C(=O)N1CCN(c2ncnc3c2C(C)CC3O)CC1)c1ccc(Cl)cc1 (stereo unspecified) + C#Cc1c(F)ccc2cc(O)cc(-c3ncc4c(N5CC6CCC(C5)N6)nc(OCC56CCCN5CC(F)C6)nc4c3F)c12,IC50,second compound 0.0316 µM,> 10 µM
same,IC50,second compound 0.1 µM,> 10 µM
same,IC50,second compound 0.316 µM,> 10 µM
same,IC50,second compound 1 µM,> 10 µM
same,IC50,second compound 3.16 µM,> 10 µM
same,IC50,second compound 10 µM,> 10 µM
same,"viability, T/C",[1],110%
same,"viability, T/C",[2],106%
same,"viability, T/C",[3],92.9%
same,"viability, T/C",[4],99.2%
same,"viability, T/C",[5],104%
same,"viability, T/C",[6],96.7%
same,"viability, T/C",[7],110%
same,"viability, T/C",[8],96.9%
same,"viability, T/C",[9],106%
same,"viability, T/C",[10],98%
same,"viability, T/C",[11],113%
same,"viability, T/C",[12],103%
same,"viability, T/C",[13],105%
same,"viability, T/C",[14],96.1%
same,"viability, T/C",[15],110%
same,"viability, T/C",[16],97.3%
same,"viability, T/C",[17],104%
same,"viability, T/C",[18],98.6%
same,"viability, T/C",[19],99.5%
same,"viability, T/C",[20],96.8%
same,"viability, T/C",[21],96.1%
same,"viability, T/C",[22],95.7%
same,"viability, T/C",[23],104%
same,"viability, T/C",[24],99.2%
same,"viability, T/C",[25],95.7%
same,"viability, T/C",[26],86.5%
same,"viability, T/C",[27],97.3%
same,"viability, T/C",[28],93.8%
same,"viability, T/C",[29],98.7%
same,"viability, T/C",[30],88.2%
same,"viability, T/C",[31],83.9%
same,"viability, T/C",[32],82.6%
same,"viability, T/C",[33],81.9%
same,"viability, T/C",[34],85.9%
same,"viability, T/C",[35],91.5%
same,"viability, T/C",[36],81.9%
CC(Nc1ccc2c(c1)OCCn1cc(N3C(=O)OCC3C(F)F)nc1-2)C(N)=O (stereo unspecified) + C#Cc1c(F)ccc2cc(O)cc(-c3ncc4c(N5CC6CCC(C5)N6)nc(OCC56CCCN5CC(F)C6)nc4c3F)c12,IC50,second compound 0.0316 µM,> 10 µM
same,IC50,second compound 0.1 µM,> 10 µM
same,IC50,second compound 0.316 µM,> 10 µM
same,IC50,second compound 1 µM,> 10 µM
same,IC50,second compound 3.16 µM,> 10 µM
same,IC50,second compound 10 µM,> 10 µM
same,"viability, T/C",[1],105%
same,"viability, T/C",[2],94.6%
same,"viability, T/C",[3],95.1%
same,"viability, T/C",[4],94.4%
same,"viability, T/C",[5],83.6%
same,"viability, T/C",[6],73.8%
same,"viability, T/C",[7],102%
same,"viability, T/C",[8],98.1%
same,"viability, T/C",[9],88.3%
same,"viability, T/C",[10],95.1%
same,"viability, T/C",[11],83%
same,"viability, T/C",[12],70.4%
same,"viability, T/C",[13],114%
same,"viability, T/C",[14],98.1%
same,"viability, T/C",[15],95.7%
same,"viability, T/C",[16],91.1%
same,"viability, T/C",[17],84.3%
same,"viability, T/C",[18],72.1%
same,"viability, T/C",[19],102%
same,"viability, T/C",[20],103%
same,"viability, T/C",[21],94.8%
same,"viability, T/C",[22],84%
same,"viability, T/C",[23],81.8%
same,"viability, T/C",[24],64.3%
same,"viability, T/C",[25],89.8%
same,"viability, T/C",[26],93.3%
same,"viability, T/C",[27],88.4%
same,"viability, T/C",[28],74.2%
same,"viability, T/C",[29],72.5%
same,"viability, T/C",[30],68.4%
same,"viability, T/C",[31],80.5%
same,"viability, T/C",[32],83.5%
same,"viability, T/C",[33],82.2%
same,"viability, T/C",[34],68.1%
same,"viability, T/C",[35],64.8%
same,"viability, T/C",[36],57.3%
O=C(c1ccc(F)c(F)c1Nc1ccc(I)cc1F)N1CC(O)([C@@H]2CCCCN2)C1 + C#Cc1c(F)ccc2cc(O)cc(-c3ncc4c(N5CC6CCC(C5)N6)nc(OCC56CCCN5CC(F)C6)nc4c3F)c12,IC50,second compound 0.0316 µM,0.187 µM
same,IC50,second compound 0.1 µM,0.185 µM
same,IC50,second compound 0.316 µM,0.17 µM
same,IC50,second compound 1 µM,0.171 µM
same,IC50,second compound 3.16 µM,0.159 µM
same,IC50,second compound 10 µM,0.125 µM
same,"viability, T/C","second compound 0.0316 µM, first compound 0.00316 µM",108%
same,"viability, T/C","second compound 0.0316 µM, first compound 0.01 µM",105%
same,"viability, T/C",[1],90.7%
same,"viability, T/C",[2],87.1%
same,"viability, T/C",[3],19.3%
same,"viability, T/C",[4],3.6%
same,"viability, T/C","second compound 0.1 µM, first compound 0.00316 µM",113%
same,"viability, T/C","second compound 0.1 µM, first compound 0.01 µM",100%
same,"viability, T/C",[7],107%
same,"viability, T/C",[8],84.3%
same,"viability, T/C",[9],20.2%
same,"viability, T/C",[10],4.03%
same,"viability, T/C","second compound 0.316 µM, first compound 0.00316 µM",109%
same,"viability, T/C","second compound 0.316 µM, first compound 0.01 µM",106%
same,"viability, T/C",[13],95.6%
same,"viability, T/C",[14],77.7%
same,"viability, T/C",[15],18.3%
same,"viability, T/C",[16],4.22%
same,"viability, T/C","second compound 1 µM, first compound 0.00316 µM",105%
same,"viability, T/C","second compound 1 µM, first compound 0.01 µM",99.8%
same,"viability, T/C",[19],93.2%
same,"viability, T/C",[20],77.3%
same,"viability, T/C",[21],19.3%
same,"viability, T/C",[22],3.49%
same,"viability, T/C","second compound 3.16 µM, first compound 0.00316 µM",97%
same,"viability, T/C","second compound 3.16 µM, first compound 0.01 µM",89.7%
same,"viability, T/C",[25],91.3%
same,"viability, T/C",[26],73.1%
same,"viability, T/C",[27],15.6%
same,"viability, T/C",[28],4.86%
same,"viability, T/C","second compound 10 µM, first compound 0.00316 µM",86%
same,"viability, T/C","second compound 10 µM, first compound 0.01 µM",82.1%
same,"viability, T/C",[31],70.5%
same,"viability, T/C",[32],60.7%
same,"viability, T/C",[33],12.1%
same,"viability, T/C",[34],3.34%
